Results on one compound are retold here after patent publication US20130150330A1, “DECOQUINATE PRODRUGS” (UNIVERSITY OF KANSAS, priority 2011, published 2013).

As a reminder, the solubility is the dissolved amount per volume that the medium holds.

Where only a bound is given, the exact number is not on record here.

The nature of this data set: Solubility in water, increasing amounts added to 1 mL deionized water. The data set is classed as physicochemical. As to conditions: decoquinate without the prodrug moiety, comparison. As to the method: Comparatively, decoquinate without the prodrug moiety is practically insoluble in water (<0.05 mg/ml). Improved solubility in water allows administration of the decoquinate prodrug by the intravenous and intramuscular routes. Additionally, water solubility also makes oral administration feasible by improving absorption from the GI tract.

On to `CCCCCCCCCCOc1cc2c(O)c(C(=O)OCC)cnc2cc1OCC` [decoquinate, ethyl 6-(decyloxy)-7-ethoxy-4-oxo-1,4-dihydroquinoline-3-carboxylate], for which the solubility is below 50 µg/mL.
